Measured values reported in US20260151425A1, “COMPOSITIONS AND METHODS OF USE THEREOF” (SYNEDGEN, INC., priority 2020, published 2026).
Where two headings read alike, the source gives them in different places.

How the values were obtained:
MABSC biofilm = assay: 2D MBEC checkerboard assay, antibiotic potentiation in biofilm; assay type: cell-based, Mycobacterium abscessus complex; conditions: for MBEC: antibiotic alone; for Fold Change: MBEC alone vs MBEC with PAAG 128 μg/mL; for MBEC with PAAG: antibiotic with PAAG at half of its MBEC (128 μg/mL)
Description: (§1) PAAG synergy with conventional antibiotics was determined by 2D checkerboard analysis. PAAG's antimicrobial activity and antibiotic potentiation in a biofilm were determined by minimum biofilm eradication concentration (MBEC) and 2D MBEC checkerboard assays to determine antibiotic potentiation with PAAG within a biofilm.

[1] = tested on: M. avium complex NTM 0260; assay: MIC of CF NTM clinical isolates; assay type: cell-based; conditions: for CLSI clinical breakpoint category: NTM 0260; for MIC: M. avium complex NTM 0260
MAC NTM 0260 = assay: 2D checkerboard analysis, antibiotic MIC with PAAG; assay type: cell-based, Mycobacterium avium complex; conditions: for Fold Change: MIC alone vs MIC with PAAG 8 μg/mL; for MIC: Mycobacterium avium
Description: as §1

[2] = tested on: M. avium complex NTM 0813; assay: MIC of CF NTM clinical isolates; assay type: cell-based; conditions: for CLSI clinical breakpoint category: NTM 0813; for MIC: M. avium complex NTM 0813
[3] = tested on: M. abscessus subsp. abscessus NTM 0079; assay: MIC of CF NTM clinical isolates; assay type: cell-based; conditions: for CLSI clinical breakpoint category: NTM 0079; for MIC: M. abscessus subsp. abscessus NTM 0079
MABSC NTM 0082 = assay: 2D checkerboard analysis, antibiotic MIC with PAAG; assay type: cell-based, Mycobacterium abscessus complex; conditions: for Fold Change: MIC alone vs MIC with PAAG 128 μg/mL; for MIC: Mycobacteroides abscessus
Description: as §1

[4] = tested on: M. abscessus subsp. abscessus NTM 0082; assay: MIC of CF NTM clinical isolates; assay type: cell-based; conditions: for CLSI clinical breakpoint category: NTM 0082; for MIC: M. abscessus subsp. abscessus NTM 0082
[5] = tested on: M. abscessus subsp. bolletii NTM 0003; assay: MIC of CF NTM clinical isolates; assay type: cell-based; conditions: for CLSI clinical breakpoint category: NTM 0003; for MIC: M. abscessus subsp. bolletii NTM 0003
M. gordonae NTM 0274 = assay: MIC of CF NTM clinical isolates; assay type: cell-based; conditions: for CLSI clinical breakpoint category: NTM 0274; for MIC: M. gordonae NTM 0274
MAC biofilm = assay: 2D MBEC checkerboard assay, antibiotic potentiation in biofilm; assay type: cell-based, Mycobacterium avium complex; conditions: for Fold Change: MBEC alone vs MBEC with PAAG 8 μg/mL; for MBEC: antibiotic alone; for MBEC with PAAG: antibiotic with PAAG at half of its MBEC (8 μg/mL)
Description: as §1
In addition, PAAG potentiates antibiotics against NTM in biofilms as measured with minimum biofilm eradication concentration (MBEC) (Table 3).

MAC cultures = assay: Modified time kill analysis with 7-day recovery phase; assay type: cell-based, Mycobacterium avium complex; conditions: PAAG 250 μg/mL
Description: For MAC cultures, a modified time kill analysis was performed over a period of 21 days and included a 7-day recovery phase in antimicrobial free media post treatment. PAAG treatment led to eradication of MAC cell population within 4 days of treatment.

MABSC cultures = assay: as above; assay type: cell-based, Mycobacterium abscessus complex; conditions: PAAG 250 μg/mL
Description: For MABSC cultures, a modified time kill analysis was performed over a period of 12 days and included a 7-day recovery phase in antimicrobial free media post treatment. PAAG treatment led to eradication of MABSC cell population within 48 hours of treatment.

[6] = tested on: biofilm cultures of Mycobacteria isolates; assay: Static biofilm assay with crystal violet staining; assay type: cell-based; conditions: 48 hour biofilms treated for an hour; increasing dose of PAAG
Description: (§2) Biofilm cultures of Mycobacteria isolates were grown for 48 hours in static 96-well plates at 37 C on a static incubator. The biofilm cultures were treated using PAAG alone and in formulation with 1.38% glycerol for an hour. The MBEC assay measured the logarithmic reduction in the growth of biofilm by serial dilution and spot plate method. […] The static assay was used to measure the decrease in biofilm density as the dose of PAAG increases by staining each well with crystal violet and measuring the biofilm densities at 590 nm.
The biofilm biomass was quantified using crystal violet staining in static TCP biofilm assay.

MAC persister cells = assay: PAAG treatment of antibiotic induced NTM persisters; assay type: cell-based, Mycobacterium avium complex
Description: (§3) The cultures were then pelleted, washed free of antibiotics and resuspended in broth free of any antimicrobials (i.e., recovery phase).

[7] = tested on: biofilm cultures of Mycobacteria isolates; assay: MBEC assay, logarithmic reduction of biofilm growth; assay type: cell-based; conditions: 48 hour biofilms treated for an hour; varies from strain to strain
Description: as §2

MABSC persister cells = assay: PAAG treatment of antibiotic induced NTM persisters; assay type: cell-based, Mycobacterium abscessus complex
Description: as §3

NTM biofilms = assay: Optical measurement of biofilm thickness; assay type: cell-based; conditions: PAAG at 50, 100 and 200 μg/mL
Description: The biofilm thickness was optically measured assuming the Refractive Index (RI) of the biofilm was equal to water per Bakke & Olsson, et al., (1986).

[8] = Mycobacterium avium, read-out: MIC
[9] = antibiotic alone, MAC NTM 0260, read-out: MIC
[10] = Mycobacteroides abscessus, read-out: MIC
[11] = antibiotic alone, read-out: MIC
[12] = antibiotic with PAAG at half of its MIC (128 μg/mL), read-out: MIC with PAAG
[13] = Mycobacterium gordonae, NTM0274, read-out: MIC

| Compound | MBEC (MABSC biofilm) | MIC [1, 8] | Fold Change (MAC NTM 0260; MAC NTM 0260) | MIC (MAC NTM 0260; [9]) | MIC (MAC NTM 0260; read-out: MIC with PAAG) | MIC [2, 8] | Fold Change (MABSC biofilm) | MBEC with PAAG (MABSC biofilm) | MIC [3, 10] | Fold Change (MABSC NTM 0082) | MIC (MABSC NTM 0082; [11]) | MIC (MABSC NTM 0082; [12]) | MIC [4, 10] | MIC [5, 10] | MIC (M. gordonae NTM 0274; [13]) | Fold Change (MAC biofilm) | MBEC (MAC biofilm) | MBEC with PAAG (MAC biofilm) | also measured |
| --- | --- | --- | --- | --- | --- | --- | --- | --- | --- | --- | --- | --- | --- | --- | --- | --- | --- | --- | --- |
| O=C(O)c1cn(C2CC2)c2cc(N3CCNCC3)c(F)cc2c1=O [Ciprofloxacin] | >1024 µg/mL |  |  |  |  |  |  |  |  |  |  |  |  |  |  |  |  |  |  |
| CC[C@@H](CO)NCCN[C@@H](CC)CO [Ethambutol] | >1024 µg/mL | 2 µg/mL | 2 | 2 µg/mL | 1 µg/mL | 2 µg/mL | >512 | 2 µg/mL | 32 µg/mL | 128 | 32 µg/mL | 0.25 µg/mL | 32 µg/mL | 8 µg/mL | 2 µg/mL | >32 | >8 µg/mL | <0.25 µg/mL | CLSI clinical breakpoint category ([1]; Ethambutol breakpoints): R (≥2 μg/mL (R) for Ethambutol); CLSI clinical breakpoint category ([2]; Ethambutol breakpoints): R (≥2 μg/mL (R) for Ethambutol); CLSI clinical breakpoint category ([3]; Ethambutol breakpoints): R (≥2 μg/mL (R) for Ethambutol); CLSI clinical breakpoint category ([4]; Ethambutol breakpoints): R (≥2 μg/mL (R) for Ethambutol); CLSI clinical breakpoint category ([5]; Ethambutol breakpoints): R (≥2 μg/mL (R) for Ethambutol); CLSI clinical breakpoint category (M. gordonae NTM 0274; Ethambutol breakpoints): R (≥2 μg/mL (R) for Ethambutol) |
| NCC[C@H](O)C(=O)N[C@@H]1C[C@H](N)[C@@H](O[C@H]2O[C@H](CN)[C@@H](O)[C@H](O)[C@H]2O)[C@H](O)[C@H]1O[C@H]1O[C@H](CO)[C@@H](O)[C@H](N)[C@H]1O [Amikacin] | >1024 µg/mL | 2 µg/mL |  |  |  | 2 µg/mL | >512 | 2 µg/mL | 8 µg/mL | 533 | 32 µg/mL | 0.06 µg/mL | 8 µg/mL | 4 µg/mL | < 0.0625 µg/mL |  |  |  | CLSI clinical breakpoint category ([1]; Amikacin breakpoints): (S) (≤16 μg/mL (S)); CLSI clinical breakpoint category ([2]; Amikacin breakpoints): (S) (≤16 μg/mL (S)); CLSI clinical breakpoint category ([3]; Amikacin breakpoints): (R) (≥64 μg/mL (R) for Amikacin); CLSI clinical breakpoint category ([4]; Amikacin breakpoints): (R) (≥64 μg/mL (R) for Amikacin); CLSI clinical breakpoint category ([5]; Amikacin breakpoints): (S) (≤16 μg/mL (S)); CLSI clinical breakpoint category (M. gordonae NTM 0274; Amikacin breakpoints): (S) (≤16 μg/mL (S)) |
| poly(acetyl, arginyl) glucosamine [PAAG] |  |  |  |  |  |  |  |  |  |  |  |  |  |  |  |  |  |  | MIC [1]: 16 µg/mL; MIC [2]: 16 µg/mL; MIC [3]: 250 µg/mL; time to eradication of MAC cell population (MAC cultures; time kill over 21 days): ≤ 4 days; killing outcome (MAC cultures; slow growing MAC): complete eradication; time to eradication of MABSC cell population (MABSC cultures; time kill over 12 days): ≤ 48 h; killing outcome (MABSC cultures; rapid growing MABSC): complete eradication; MIC [4]: 250 µg/mL; MIC [5]: 128 µg/mL; biofilm density (crystal violet, 590 nm) [6]: dose dependent reduction in the density of the bacteria; MIC (M. gordonae NTM 0274): 32 µg/mL; CFU/mL after PAAG treatment of persisters (MAC persister cells; MAC cultures surviving antibiotic treatment, PAAG for 10 days): 0 CFU/mL; regrowth of persisters after PAAG treatment (MAC persister cells; MAC, recovery in fresh broth 24 days): none of the persisters in either strain showed regrowth; log reduction in biofilm compared to the control [7]: two to three log reduction; CFU/mL after PAAG treatment of persisters (MABSC persister cells; MABSC cultures surviving antibiotic treatment, PAAG for 4 days): 0 CFU/mL; regrowth of persisters after PAAG treatment (MABSC persister cells; MABSC, recovery in fresh broth 12 days): none of the persisters in either strain showed regrowth; biofilm thickness (NTM biofilms): reduction in BCC biofilm thickness in a dose dependent manner; bacterial viability at depth in biofilm (NTM biofilms; depths >5-10 μm): significantly decreased bacterial viability |
| CC[C@H]1OC(=O)[C@H](C)[C@@H](O[C@H]2C[C@@](C)(OC)[C@@H](O)[C@H](C)O2)[C@H](C)[C@@H](O[C@@H]2O[C@H](C)C[C@H](N(C)C)[C@H]2O)[C@](C)(O)C[C@@H](C)CN(C)[C@H](C)[C@@H](O)[C@]1(C)O [Azithromycin] |  | 2 µg/mL | 4 | 2 µg/mL | 0.5 µg/mL | 2 µg/mL |  |  | 32 µg/mL |  |  |  | 32 µg/mL | 32 µg/mL | 2 µg/mL | 8 | 8 µg/mL | 1 µg/mL | CLSI clinical breakpoint category ([1]; Azithromycin breakpoints): (I) (4 μg/mL (I)); CLSI clinical breakpoint category ([2]; Azithromycin breakpoints): (I) (4 μg/mL (I)); CLSI clinical breakpoint category ([3]; Azithromycin breakpoints): (R) (≥8 μg/mL (R)); CLSI clinical breakpoint category ([4]; Azithromycin breakpoints): (R) (≥8 μg/mL (R)); CLSI clinical breakpoint category ([5]; Azithromycin breakpoints): (R) (≥8 μg/mL (R)); CLSI clinical breakpoint category (M. gordonae NTM 0274; Azithromycin breakpoints): (I) (4 μg/mL (I)) |
| CO[C@H]1/C=C/O[C@@]2(C)Oc3c(C)c(O)c4c(O)c(c(/C=N/N5CCN(C)CC5)c(O)c4c3C2=O)NC(=O)/C(C)=C\C=C\[C@H](C)[C@H](O)[C@@H](C)[C@@H](O)[C@@H](C)[C@H](OC(C)=O)[C@@H]1C [Rifampicin] | >1024 µg/mL | 4 µg/mL | 4 | 4 µg/mL | 1 µg/mL | 4 µg/mL | >512 | 2 µg/mL | 2 µg/mL | 21 | 2 µg/mL | 0.06 µg/mL | 2 µg/mL | 8 µg/mL | 2 µg/mL | >32 | 8 µg/mL | <0.25 µg/mL | CLSI clinical breakpoint category ([1]; Rifampicin breakpoints): R (≥1 μg/mL (R) for Rifampicin); CLSI clinical breakpoint category ([2]; Rifampicin breakpoints): R (≥1 μg/mL (R) for Rifampicin); CLSI clinical breakpoint category ([3]; Rifampicin breakpoints): R (≥1 μg/mL (R) for Rifampicin); CLSI clinical breakpoint category ([4]; Rifampicin breakpoints): R (≥1 μg/mL (R) for Rifampicin); CLSI clinical breakpoint category ([5]; Rifampicin breakpoints): R (≥1 μg/mL (R) for Rifampicin); CLSI clinical breakpoint category (M. gordonae NTM 0274; Rifampicin breakpoints): R (≥1 μg/mL (R) for Rifampicin) |
